From publication PMC4841544, “Molecular Basis of Ligand-Dependent Regulation of NadR, the Transcriptional Repressor of Meningococcal Virulence Factor NadA” (PLoS Pathogens, 2016) come the findings set out here.

Structures are written as SMILES.

Common to all, as to type: binding
The target in experiment [1] is T1, NadR (Neisseria adhesin A Regulator) (Neisseria meningitidis, UniProt Q7DD70). As to the kind of experiment: SPR steady-state; DSC (ΔTm […] °C). Further details: gene NMB1843; NadR residues M1-S146, His-tag removed by thrombin (149 residues).
T1 sequence (Q7DD70 entry or part of it): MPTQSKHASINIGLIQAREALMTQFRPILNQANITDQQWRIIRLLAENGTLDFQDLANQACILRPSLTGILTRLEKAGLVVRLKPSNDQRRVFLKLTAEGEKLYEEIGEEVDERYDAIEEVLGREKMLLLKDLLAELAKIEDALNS
Experiment [2] has as its target T1, NadR (Neisseria adhesin A Regulator). The experiment can be described thus: SPR steady-state; DSC (ΔTm […] °C). Further details: gene NMB1843; NadR residues M1-S146, His-tag removed by thrombin (149 residues). The source holds these as a separate data set.
Experiment [3] shares this target. The experiment can be described thus: SPR steady-state; DSC; 1H-15N TROSY-HSQC NMR. Further details: gene NMB1843; NadR residues M1-S146, His-tag removed by thrombin (149 residues); SeMet derivative for the crystal.

For the molecule `O=C(O)Cc1cccc(O)c1` [3-HPA], in experiment [1], the Kd was found to be 2700 ± 100 µM.

Turning to `O=C(O)Cc1ccc(O)c(Cl)c1` [3Cl,4-HPA], the Kd in experiment [2] stood at 1100 ± 100 µM.

In experiment [3], `O=C(O)Cc1ccc(O)cc1` [4-HPA, 4-hydroxyphenylacetate] registered a Kd of 1500 ± 100 µM.

The Kd is the constant that tells how readily two partners part at equilibrium.
